The values that follow come from US7067257B2, “Thyrotropin-releasing hormone analogues and their therapeutic applications” (University of Florida, priority 2002, dated 2006).

Square brackets hold non-standard residues; d marks the D form. Peptide text beside a SMILES is read from it. pGlu = O=C1CC[C@@H](C(=O)O)N1

Data set [1] deals with Swiss Webster mice. Put plainly: duration of analeptic action, antagonism of barbituate-induced anesthesia (Example 6). It counts as in vivo. To be noted: 15 μmol/kg i.v.; pentobarbital injection at 60 minutes compared to after 10 minutes. Here is the method:
A pharmacological paradigm was used to assess the potency of the subject TRH analogues as central nervous system agents administered to animals in their prodrug forms in vivo. The antagonism on the barbituate-induced anesthesia was explored to survey the extent of activation of cholinergic neurons by the test compounds. Ten to sixteen Swiss Webster mice (30±2 g) were used in each group. Test compounds were dissolved in degassed DMSO. The vehicle alone (1.5 ml/kg body weight) or equimolar doses of TRH as control and prodrugs according to the present invention (15 μmol/kg body weight) were injected through the tail vein. After 10 minutes, each animal received an intraperitoneal (i.p.) injection of sodium pentobarbital at dose 60 mg/kg bodyweight. An increase in the time after which the animals were injected with TRH and a TRH analogue according to the present invention and after the cholinergic challenge was made was increased. The sleeping time was recorded as the time elapsed from the onset of the loss of righting reflex until the reflex was regained.

The conditions of data set [2]: rat, human, in vivo; cited from earlier work.
Data set [3] can be described thus: in vitro stability in mouse brain homogenate. It counts as in vitro ADME. To be noted: mouse brain homogenate (20% w/v). The protocol: In vitro stability studies in mouse brain homogenate (20% w/v) were conducted at 100 μM concentration of TRH analogues of Formula I wherein R^3 is an ester moiety. Analytical reversed-phase gradient HPLC with UV detection (λ=214 nm) was used to monitor the decline in the concentration in the compound added. The half-lives (t1/2) were 20 and 22 minutes for the TRH analogues derived from primary alcohols and 25 minutes and 70 minute for TRH analogues derived from […]. TRH analogues of the subject invention in which R^3 is benzyl ester was discovered to be relatively stable in the tissue (t1/2>2 hours).

Data set [4] relates to Swiss Webster mice. Put plainly: antagonism of barbiturate-induced anesthesia in mice (Example 9). It counts as in vivo. To be noted: 10 μmole/kg i.v.; sodium pentobarbital 60 mg/kg i.p. after 10 minutes. Here is the method: The antagonism of the barbiturate-induced anesthesia in mice was used to assess the increase in the access of the TRH analogues of the present invention to the central nervous system compared to the parent TRH-like tripeptide (pGlu-Glu-Pro-NH2). In this assay related to the analeptic activity of the TRH-like tripeptide, 10 to 18 Swiss Webster mice (30±2 g body weight) were used in each group. The vehicle alone (1.5 ml/kg body weight) or equimolar doses of TRH-like tripeptide as control and the TRH analogues of Formula I (10 μmole/kg body weight) were injected through the tail vein (i.v.). In another group of animals, the TRH-like tripeptide was administered at 10-times higher dose (100 μmol/kg) for comparison. After 10 minutes, each animal received an intraperitoneal (i.p.) injection of sodium pentobarbital at a dose of 60 mg/kg body weight. The sleeping time was recorded from the onset of the loss of righting reflex until the reflex was regained.
Based on measuring analeptic activity in the animal model selected.

As to `NC(=O)[C@@H]1CCCN1C(=O)[C@H](Cc1cnc[nH]1)NC(=O)[C@@H]1CCC(=O)N1` [TRH, L-pyroglutamyl-L-histidyl-L-prolinamide], the “loss of central nervous system (analeptic) activity” value in data set [1] is on record as “over 50%”. Besides, in data set [2], the biological half-life is 4–6 minutes.

In the case of `NC(=O)[C@@H]1CCCN1C(=O)[C@H](CCC(=O)OCc1ccccc1)NC(=O)[C@@H]1CCC(=O)N1` [benzyl ester] (HELM PEPTIDE1{[Glp].E.P.[am]}|CHEM1{[c1ccc(CO[*:1])cc1]}$PEPTIDE1,CHEM1,2:R3-1:R1$$$V2.0), the half-life – broadly, how long it takes for the measured level to halve – at 100 μM in data set [3] is above 2 h.

Molecule “[pGlu]-Glu-Pro-NH2 [TRH-like tripeptide]” showed a sleeping time in data set [4] of 65±3 minutes SEM.
